Reference: patent publication US20220046923A1, “HERBICIDAL CINNOLINIUM COMPOUNDS” (SYNGENTA CROP PROTECTION AG, priority 2018, published 2022)
Where a name gives a salt, the structure may show the parent alone.

Key:
Assay in all cases: Post-emergence efficacy, glasshouse spray test
Type in all cases: in vivo
[1] = test system: Digitaria sanguinalis (DIGSA); settings: Digitaria sanguinalis, post-emergence, 312 h, evaluated after 13 days, read-out: Control of weed species DIGSA after post-emergence application (100=total damage to plant; 0=no damage to plant); for pest or weed control at 500 g/ha: application rate 500 g/Ha; for pest or weed control at 1000 g/ha: application rate 1000 g/Ha
Outline: (§1)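 Seeds were sown in pots of standard soil and grown for 14 days under controlled glasshouse conditions. Seedlings were sprayed with the compound emulsified via acetone and IF50 and diluted in sodium lauryl ether sulphate (0.25% or 1%) with 1% ammonium sulphate. They were kept at 24/16 °C with 14 h light and 65% humidity and rated for damage on a 0–100 scale after 13 days.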

Eleusine indica (ELEIN) = settings: Eleusine indica, post-emergence, 312 h, evaluated after 13 days, read-out: Control of weed species ELEIN after post-emergence application (100=total damage to plant; 0=no damage to plant); for pest or weed control at 500 g/ha: application rate 500 g/Ha; for pest or weed control at 1000 g/ha: application rate 1000 g/Ha
Outline: as §1

Lolium perenne (LOLPE) = settings: Lolium perenne, post-emergence, 312 h, evaluated after 13 days, read-out: Control of weed species LOLPE after post-emergence application (100=total damage to plant; 0=no damage to plant); for pest or weed control at 500 g/ha: application rate 500 g/Ha; for pest or weed control at 1000 g/ha: application rate 1000 g/Ha
Outline: as §1

[2] = test system: Ipomoea hederacea (IPOHE); settings: Ipomoea hederacea, post-emergence, 312 h, evaluated after 13 days, read-out: Control of weed species IPOHE after post-emergence application (100=total damage to plant; 0=no damage to plant); for pest or weed control at 500 g/ha: application rate 500 g/Ha; for pest or weed control at 1000 g/ha: application rate 1000 g/Ha
Outline: as §1

[3] = test system: Euphorbia heterophylla (EPHHL); settings: Euphorbia heterophylla, post-emergence, 312 h, evaluated after 13 days, read-out: Control of weed species EPHHL after post-emergence application (100=total damage to plant; 0=no damage to plant); for pest or weed control at 500 g/ha: application rate 500 g/Ha; for pest or weed control at 1000 g/ha: application rate 1000 g/Ha
Outline: as §1

Setaria faberi (SETFA) = settings: Setaria faberi, post-emergence, 312 h, evaluated after 13 days, read-out: Control of weed species SETFA after post-emergence application (100=total damage to plant; 0=no damage to plant); for pest or weed control at 500 g/ha: application rate 500 g/Ha; for pest or weed control at 1000 g/ha: application rate 1000 g/Ha
Outline: as §1

[4] = test system: Echinochloa crus-galli (ECHCG); settings: Echinochloa crus-galli, post-emergence, 312 h, evaluated after 13 days, read-out: Control of weed species ECHCG after post-emergence application (100=total damage to plant; 0=no damage to plant); for pest or weed control at 500 g/ha: application rate 500 g/Ha; for pest or weed control at 1000 g/ha: application rate 1000 g/Ha
Outline: as §1

[5] = test system: Chenopodium album (CHEAL); settings: Chenopodium album, post-emergence, 312 h, evaluated after 13 days, read-out: Control of weed species CHEAL after post-emergence application (100=total damage to plant; 0=no damage to plant); for pest or weed control at 500 g/ha: application rate 500 g/Ha; for pest or weed control at 1000 g/ha: application rate 1000 g/Ha
Outline: as §1

[6] = test system: Amaranthus palmeri (AMAPA); settings: Amaranthus palmeri, post-emergence, 312 h, evaluated after 13 days, read-out: Control of weed species AMAPA after post-emergence application (100=total damage to plant; 0=no damage to plant); for pest or weed control at 500 g/ha: application rate 500 g/Ha; for pest or weed control at 1000 g/ha: application rate 1000 g/Ha
Outline: as §1

| Structure (SMILES) | pest or weed control at 500 g/ha [1] | pest or weed control at 500 g/ha (Eleusine indica (ELEIN)) | pest or weed control at 500 g/ha (Lolium perenne (LOLPE)) | pest or weed control at 500 g/ha [2] | pest or weed control at 500 g/ha [3] | pest or weed control at 500 g/ha (Setaria faberi (SETFA)) | pest or weed control at 500 g/ha [4] | pest or weed control at 500 g/ha [5] | pest or weed control at 500 g/ha [6] | pest or weed control at 1000 g/ha [1] | pest or weed control at 1000 g/ha (Eleusine indica (ELEIN)) | pest or weed control at 1000 g/ha (Lolium perenne (LOLPE)) | pest or weed control at 1000 g/ha [2] | pest or weed control at 1000 g/ha [3] | pest or weed control at 1000 g/ha (Setaria faberi (SETFA)) | pest or weed control at 1000 g/ha [4] | pest or weed control at 1000 g/ha [5] | pest or weed control at 1000 g/ha [6] |
| --- | --- | --- | --- | --- | --- | --- | --- | --- | --- | --- | --- | --- | --- | --- | --- | --- | --- | --- |
| C[C@@H](CNS(=O)(=O)[O-])[n+]1ccc2ccccc2n1 [Compound A50] | 30% | 20% | 20% | 40% | 60% | 20% | 20% | 70% | 80% |  |  |  |  |  |  |  |  |  |
| O=S(=O)([O-])CC[n+]1cc(-c2ccccc2)c2ccccc2n1 [Compound A51] |  |  |  |  |  |  |  |  |  | 40% | 30% | 10% | 30% | 60% | 30% | 20% | 30% | 90% |
| O=S(=O)([O-])CC[n+]1ccc2cccc(-c3ccccc3)c2n1 [Compound A52, 2-(8-phenylcinnolin-2-ium-2-yl)ethanesulfonate] |  |  |  |  |  |  |  |  |  | 40% | 70% | 20% | 30% | 100% | 30% | 20% | 40% | 100% |
| O=S(=O)([O-])CC[n+]1ccc2cc(-c3ccccc3)ccc2n1 [Compound A53] | 10% | 40% | 0% | 10% | 20% | 10% | 0% | 0% | 20% |  |  |  |  |  |  |  |  |  |
| CC#Cc1c[n+](CCOS(=O)(=O)[O-])nc2ccccc12 [Compound A54, 2-(4-prop-1-ynylcinnolin-2-ium-2-yl)ethyl sulfate] |  |  |  |  |  |  |  |  |  | 30% | 30% | 10% | 10% | 30% | 20% | 10% | 40% | 30% |
| O=C(O)c1ccccc1C[n+]1ccc2ccccc2n1 [Compound A55] |  |  |  |  |  |  |  |  |  | 10% | 10% | 0% | 30% | 30% | 0% | 20% | 30% | 10% |
| O=S(=O)(O)OCC[n+]1nc2ccccc2cc1Cl [Compound A56] |  |  |  |  |  |  |  |  |  | 20% | 30% | 0% | 0% | 50% | 20% | 10% | 0% | 0% |
| COC(=O)C[n+]1ccc2cc(C)ccc2n1 [Compound A57] |  |  |  |  |  |  |  |  |  | 40% | 60% | 10% | 20% | 60% | 30% | 20% | 40% | 70% |
